System: Mouse B16 melanoma cells
Experiment: Melanin production inhibition test
Format: cell-based
Settings: 3 days after addition, graded by minimum non-cytotoxic concentration at which ratio of melanin amount was 80% or less
Experimental: A test for melanin production inhibition by the compounds of the formula (1) was conducted. The test method is as follows.
Melanin Production Inhibition Test
(1) Inoculation of Cells and Addition of Test Substances
Mouse B16 melanoma cells were inoculated in a six well plate at 100,000 cells/well. The next day, test substance solutions (solvent: DMSO) were added.
(2) Cell Proliferation Test
Three days after the addition of the test substance solution, the medium was removed by aspiration. Then 1 ml of EMEM medium containing 10% Alamar Blue solution was added, and a reaction was allowed to proceed at 37° C. After 30 minutes, 100 μL of the reaction mixture was transferred to a 96 well plate and fluorescence was measured at an excitation wavelength of 544 nm and a measurement wavelength of 590 nm. Using the value thus measured as a relative value of cell count, a ratio of the cell count (% cell count) of the test substance-added group to the test substance-absent group (group in which only the solvent was added) was calculated. […] It was determined that a compound having the % cell count of 80% or more was non-cytotoxic, and that a compound having the % cell count of less than 80% was cytotoxic.
(3) Quantification of Melanin
The cells after the cell proliferation test were washed with PBS three times, and then lysed by addition of 200 μL of 1M NaOH to measure an absorbance at 475 nm. […]

For `CC1(C)CSC(Nc2ccccc2)=N1` [Compound 1, 4,4-dimethyl-N-phenyl-4,5-dihydrothiazol-2-amine], the “Inhibitory effect on melanin production” value was “⊚ (the minimum concentration for inhibition of melanin production was 1 ppm or less)”.

From patent US8211412B2, “Method for skin whitening” (Shiseido Company Ltd., priority 2009, dated 2012)
